Legend:
Test in all cases: relative viability (nuclei count vs DMSO), 5 days (fraction); higher = more cells survive
Neratinib = compound: CCOc1cc2ncc(C#N)c(Nc3ccc(OCc4ccccn4)c(Cl)c3)c2cc1NC(=O)/C=C/CN(C)C [Neratinib]
Summary of the method: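 Lung cancer cell lines were seeded into 1536-well plates, kept overnight at 37 °C and pinned with five library-drug doses (not always all listed) spaced by √10. After 5 days, nuclei were Hoechst-stained, imaged at 4× and counted with MetaXpress. Viability is treated-well nuclei over vehicle-well nuclei, taken as a median across plates. Plates needed control CV below 25% and at least one doubling.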

Neratinib + Bortezomib = compound: CCOc1cc2ncc(C#N)c(Nc3ccc(OCc4ccccn4)c(Cl)c3)c2cc1NC(=O)/C=C/CN(C)C [Neratinib] + CC(C)C[C@H](NC(=O)[C@H](Cc1ccccc1)NC(=O)c1cnccn1)B(O)O [Bortezomib] (partner 0.002 µM)
Summary of the method: (§1)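 One day after seeding in 1536-well plates, lung cancer cell lines were dosed by pin tool. Dosing was either single-drug or a fixed anchor-drug dose plus five library-drug doses (not always all listed) in √10 steps. After 5 days, nuclei were stained in one fix-and-stain step and counted on 4× images, and relative viability is the nuclei count of treated wells over that of vehicle wells, given as the median of duplicate plates.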

Neratinib + Olaparib = compound: CCOc1cc2ncc(C#N)c(Nc3ccc(OCc4ccccn4)c(Cl)c3)c2cc1NC(=O)/C=C/CN(C)C [Neratinib] + O=C(c1cc(Cc2n[nH]c(=O)c3ccccc23)ccc1F)N1CCN(C(=O)C2CC2)CC1 [Olaparib] (partner 8 µM)
Summary of the method: as §1

Neratinib + Lapatinib = compound: CCOc1cc2ncc(C#N)c(Nc3ccc(OCc4ccccn4)c(Cl)c3)c2cc1NC(=O)/C=C/CN(C)C [Neratinib] + CS(=O)(=O)CCNCc1ccc(-c2ccc3ncnc(Nc4ccc(OCc5cccc(F)c5)c(Cl)c4)c3c2)o1 [Lapatinib] (partner 2 µM)
Summary of the method: as §1

Neratinib + Foretinib = compound: CCOc1cc2ncc(C#N)c(Nc3ccc(OCc4ccccn4)c(Cl)c3)c2cc1NC(=O)/C=C/CN(C)C [Neratinib] + COc1cc2c(Oc3ccc(NC(=O)C4(C(=O)Nc5ccc(F)cc5)CC4)cc3F)ccnc2cc1OCCCN1CCOCC1 [Foretinib] (partner 0.25 µM)
Summary of the method: as §1

Neratinib + Crizotinib = compound: CCOc1cc2ncc(C#N)c(Nc3ccc(OCc4ccccn4)c(Cl)c3)c2cc1NC(=O)/C=C/CN(C)C [Neratinib] + C[C@@H](Oc1cc(-c2cnn(C3CCNCC3)c2)cnc1N)c1c(Cl)ccc(F)c1Cl [Crizotinib] (partner 1 µM)
Summary of the method: as §1

Neratinib + Navitoclax = compound: CCOc1cc2ncc(C#N)c(Nc3ccc(OCc4ccccn4)c(Cl)c3)c2cc1NC(=O)/C=C/CN(C)C [Neratinib] + CC1(C)CCC(c2ccc(Cl)cc2)=C(CN2CCN(c3ccc(C(=O)NS(=O)(=O)c4ccc(N[C@H](CCN5CCOCC5)CSc5ccccc5)c(S(=O)(=O)C(F)(F)F)c4)cc3)CC2)C1 [Navitoclax] (partner 0.5 µM)
Summary of the method: as §1

Neratinib + Linsitinib = compound: CCOc1cc2ncc(C#N)c(Nc3ccc(OCc4ccccn4)c(Cl)c3)c2cc1NC(=O)/C=C/CN(C)C [Neratinib] + C[C@]1(O)C[C@@H](c2nc(-c3ccc4ccc(-c5ccccc5)nc4c3)c3c(N)nccn32)C1 [Linsitinib] (partner 1 µM)
Summary of the method: as §1

Neratinib + Alpelisib = compound: CCOc1cc2ncc(C#N)c(Nc3ccc(OCc4ccccn4)c(Cl)c3)c2cc1NC(=O)/C=C/CN(C)C [Neratinib] + Cc1nc(NC(=O)N2CCC[C@H]2C(N)=O)sc1-c1ccnc(C(C)(C)C(F)(F)F)c1 [Alpelisib] (partner 2 µM)
Summary of the method: as §1

Neratinib + Pictilisib = compound: CCOc1cc2ncc(C#N)c(Nc3ccc(OCc4ccccn4)c(Cl)c3)c2cc1NC(=O)/C=C/CN(C)C [Neratinib] + CS(=O)(=O)N1CCN(Cc2cc3nc(-c4cccc5[nH]ncc45)nc(N4CCOCC4)c3s2)CC1 [Pictilisib] (partner 1 µM)
Summary of the method: as §1

Neratinib + Phenformin = compound: CCOc1cc2ncc(C#N)c(Nc3ccc(OCc4ccccn4)c(Cl)c3)c2cc1NC(=O)/C=C/CN(C)C [Neratinib] + N=C(N)NC(=N)NCCc1ccccc1 [Phenformin] (partner 250 µM)
Summary of the method: as §1

Neratinib + Decitabine = compound: CCOc1cc2ncc(C#N)c(Nc3ccc(OCc4ccccn4)c(Cl)c3)c2cc1NC(=O)/C=C/CN(C)C [Neratinib] + Nc1ncn([C@H]2C[C@H](O)[C@@H](CO)O2)c(=O)n1 [Decitabine] (partner 2 µM)
Summary of the method: as §1

Calu-6
relative viability (Neratinib; 0.01 µM): 1.06
relative viability (Neratinib; 0.1 µM): 0.992
relative viability (Neratinib; 0.3162 µM): 0.955
relative viability (Neratinib; 1 µM): 0.835
relative viability (Neratinib + Bortezomib; first compound 0.01 µM): 1.1
relative viability (Neratinib + Bortezomib; first compound 0.1 µM): 0.993
relative viability (Neratinib + Bortezomib; first compound 0.3162 µM): 1
relative viability (Neratinib + Bortezomib; first compound 1 µM): 0.692
relative viability (Neratinib + Olaparib; first compound 0.01 µM): 0.507
relative viability (Neratinib + Olaparib; first compound 0.03162 µM): 0.643
relative viability (Neratinib + Olaparib; first compound 0.1 µM): 0.568
relative viability (Neratinib + Olaparib; first compound 0.3162 µM): 0.518
relative viability (Neratinib + Olaparib; first compound 1 µM): 0.369
relative viability (Neratinib + Lapatinib; first compound 0.03162 µM): 1.27
relative viability (Neratinib + Lapatinib; first compound 0.1 µM): 0.967
relative viability (Neratinib + Lapatinib; first compound 0.3162 µM): 0.95
relative viability (Neratinib + Lapatinib; first compound 1 µM): 0.64
relative viability (Neratinib + Foretinib; first compound 0.01 µM): 0.929
relative viability (Neratinib + Foretinib; first compound 0.03162 µM): 0.891
relative viability (Neratinib + Foretinib; first compound 0.1 µM): 0.736
relative viability (Neratinib + Foretinib; first compound 0.3162 µM): 0.85
relative viability (Neratinib + Foretinib; first compound 1 µM): 0.513
relative viability (Neratinib + Crizotinib; first compound 0.01 µM): 0.905
relative viability (Neratinib + Crizotinib; first compound 0.03162 µM): 0.939
relative viability (Neratinib + Crizotinib; first compound 0.1 µM): 0.737
relative viability (Neratinib + Crizotinib; first compound 0.3162 µM): 0.692
relative viability (Neratinib + Crizotinib; first compound 1 µM): 0.422
relative viability (Neratinib + Navitoclax; first compound 0.01 µM): 0.833
relative viability (Neratinib + Navitoclax; first compound 0.03162 µM): 0.899
relative viability (Neratinib + Navitoclax; first compound 0.1 µM): 0.975
relative viability (Neratinib + Navitoclax; first compound 0.3162 µM): 0.734
relative viability (Neratinib + Navitoclax; first compound 1 µM): 0.523
relative viability (Neratinib + Linsitinib; first compound 0.01 µM): 1.03
relative viability (Neratinib + Linsitinib; first compound 0.03162 µM): 1.08
relative viability (Neratinib + Linsitinib; first compound 0.1 µM): 1.02
relative viability (Neratinib + Linsitinib; first compound 0.3162 µM): 0.899
relative viability (Neratinib + Linsitinib; first compound 1 µM): 0.824
relative viability (Neratinib + Alpelisib; first compound 0.01 µM): 0.992
relative viability (Neratinib + Alpelisib; first compound 0.03162 µM): 1.05
relative viability (Neratinib + Alpelisib; first compound 0.1 µM): 1.01
relative viability (Neratinib + Alpelisib; first compound 0.3162 µM): 0.835
relative viability (Neratinib + Alpelisib; first compound 1 µM): 0.451
relative viability (Neratinib + Pictilisib; first compound 0.01 µM): 0.924
relative viability (Neratinib + Pictilisib; first compound 0.03162 µM): 1.01
relative viability (Neratinib + Pictilisib; first compound 0.1 µM): 0.891
relative viability (Neratinib + Pictilisib; first compound 0.3162 µM): 0.788
relative viability (Neratinib + Pictilisib; first compound 1 µM): 0.405

A549
relative viability (Neratinib; 0.01 µM): 1.06
relative viability (Neratinib; 0.03162 µM): 1.07
relative viability (Neratinib; 0.1 µM): 0.856
relative viability (Neratinib; 0.3162 µM): 0.911
relative viability (Neratinib; 1 µM): 0.516
relative viability (Neratinib + Olaparib; first compound 0.01 µM): 0.356
relative viability (Neratinib + Olaparib; first compound 0.03162 µM): 0.555
relative viability (Neratinib + Olaparib; first compound 0.1 µM): 0.276
relative viability (Neratinib + Olaparib; first compound 0.3162 µM): 0.296
relative viability (Neratinib + Olaparib; first compound 1 µM): 0.176
relative viability (Neratinib + Lapatinib; first compound 0.01 µM): 1.09
relative viability (Neratinib + Lapatinib; first compound 0.03162 µM): 0.968
relative viability (Neratinib + Lapatinib; first compound 0.1 µM): 0.907
relative viability (Neratinib + Lapatinib; first compound 1 µM): 0.558
relative viability (Neratinib + Foretinib; first compound 0.01 µM): 0.969
relative viability (Neratinib + Foretinib; first compound 0.03162 µM): 0.927
relative viability (Neratinib + Foretinib; first compound 0.3162 µM): 0.832
relative viability (Neratinib + Foretinib; first compound 1 µM): 0.54
relative viability (Neratinib + Crizotinib; first compound 0.01 µM): 1
relative viability (Neratinib + Crizotinib; first compound 0.03162 µM): 0.796
relative viability (Neratinib + Crizotinib; first compound 0.1 µM): 0.713
relative viability (Neratinib + Crizotinib; first compound 0.3162 µM): 0.68
relative viability (Neratinib + Crizotinib; first compound 1 µM): 0.187
relative viability (Neratinib + Phenformin; first compound 0.01 µM): 0.162
relative viability (Neratinib + Phenformin; first compound 0.03162 µM): 0.189
relative viability (Neratinib + Phenformin; first compound 0.3162 µM): 0.137
relative viability (Neratinib + Phenformin; first compound 1 µM): 0.191
relative viability (Neratinib + Navitoclax; first compound 0.01 µM): 1.42
relative viability (Neratinib + Navitoclax; first compound 0.03162 µM): 1.25
relative viability (Neratinib + Navitoclax; first compound 0.3162 µM): 1.12
relative viability (Neratinib + Navitoclax; first compound 1 µM): 0.528
relative viability (Neratinib + Linsitinib; first compound 0.01 µM): 0.614
relative viability (Neratinib + Linsitinib; first compound 0.03162 µM): 0.547
relative viability (Neratinib + Linsitinib; first compound 0.1 µM): 0.468
relative viability (Neratinib + Linsitinib; first compound 0.3162 µM): 0.391
relative viability (Neratinib + Linsitinib; first compound 1 µM): 0.365
relative viability (Neratinib + Decitabine; first compound 0.01 µM): 0.325
relative viability (Neratinib + Decitabine; first compound 0.03162 µM): 0.295
relative viability (Neratinib + Decitabine; first compound 0.3162 µM): 0.264
relative viability (Neratinib + Decitabine; first compound 1 µM): 0.318
relative viability (Neratinib + Alpelisib; first compound 0.01 µM): 0.79
relative viability (Neratinib + Alpelisib; first compound 0.03162 µM): 0.601
relative viability (Neratinib + Alpelisib; first compound 0.1 µM): 0.458
relative viability (Neratinib + Alpelisib; first compound 1 µM): 0.291
relative viability (Neratinib + Pictilisib; first compound 0.01 µM): 0.608
relative viability (Neratinib + Pictilisib; first compound 0.03162 µM): 0.409
relative viability (Neratinib + Pictilisib; first compound 0.1 µM): 0.526
relative viability (Neratinib + Pictilisib; first compound 0.3162 µM): 0.323
relative viability (Neratinib + Pictilisib; first compound 1 µM): 0.119
